Assay results taken from patent US11945822B2, “Pyrazolo-triazine and/or pyrazolo-pxrimidine derivatives as selective inhibitor of cyclin dependent kinase” (QURIENT CO., LTD., priority 2018, dated 2024).

Legend:
MOLT-4 = experiment: Cellular MOLT-4 viability assay (CellTiter-Glo, 72 hours); assay type: cell-based; conditions: Homo sapiens, MOLT4 viability assay
Procedure, shortened: (§1)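 72 h treatment, 37 °C, 5% CO2; DMSO ctrl, final <0.1%; CellTiter-Glo luminescence; n=2.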

CDK2/Cyclin A = target: T1, CDK2/Cyclin A (Homo sapiens, UniProt P24941); experiment: Enzymatic assay for CDK2 (FRET based LANCE Ultra kinase assay); assay type: biochemical; conditions: read-out: CDK2 enzymatic activity (IC50 range)
T1 construct: purchased Invitrogen PV6290
Procedure, shortened: (§2)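 TR-FRET (LANCE Ultra) kinase assay at ATP Km, ULight-MBP peptide substrate (68 nM), 8-dose 4-fold compound series in DMSO. Enzymes: […]; 60 min at 23° C., stopped with EDTA plus Eu-anti-phospho-MBP antibody, read 665/615 nm after 60 min.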

H460 = experiment: Cellular H460 viability assay (CellTiter-Glo, 72 hours); assay type: cell-based; conditions: Homo sapiens, NCI-H460
Procedure, shortened: as §1

RPMI-8226 = experiment: Cellular RPMI-8226 viability assay (CellTiter-Glo, 72 hours); assay type: cell-based; conditions: Homo sapiens
Procedure, shortened: as §1

CDK1/Cyclin B = target: T2, CDK1/Cyclin B (Homo sapiens, UniProt P06493); experiment: Enzymatic assay for CDK1 (FRET based LANCE Ultra kinase assay); assay type: biochemical; conditions: read-out: CDK1 enzymatic activity (IC50 range)
T2 construct: purchased Invitrogen PR4768C
Procedure, shortened: as §2

MV4-11 = experiment: Cellular MV4-11 viability assay (CellTiter-Glo, 72 hours); assay type: cell-based; conditions: Homo sapiens
Procedure, shortened: as §1

CDK5/p25 = target: T3, CDK5/p25 (Homo sapiens, UniProt Q00535); experiment: Enzymatic assay for CDK5 (FRET based LANCE Ultra kinase assay); assay type: biochemical; conditions: read-out: CDK5 enzymatic activity (IC50 range)
T3 construct: purchased Invitrogen PR8543B
Procedure, shortened: as §2

MM.1S = experiment: Cellular MM.1S viability assay (CellTiter-Glo, 72 hours); assay type: cell-based; conditions: Homo sapiens, MM1.S
Source text: Human T-cell acute lymphoblastic leukemia cell line, MOLT-4 (ATCC, Cat #CRL-1582), Human multiple myeloma cell line, RPMI-8226 (Invitrogen, Cat #22400-089) and MM.1S (ATCC, Cat #CRL-2974), NSCLC (Non-small cell lung cancer) cell line H460 (ATCC, Cat #HTB-177), Human colon colorectal carcinoma cell line HCT116 (ATCC, Cat #CCL-247), Human acute monocytic leukemia cell line MV4-11 (ATCC, Cat #CRL-9591), OVCAR-3 (ATCC, Cat #HTB-161) and A2780 (ECACC, Cat #93112519) were obtained from ATCC. Cells were grown in RPMI-1640 media (Invitrogen, Cat #22400-089) supplemented with 10% FBS (Invitrogen, Cat #10099141) and 1% penicillin/streptomycin (Invitrogen, Cat #15070063) and cultured at 37° C., 5% CO2 in a humidified chamber. All cell lines were routinely tested for mycoplasma.
The effect of the CDK7 inhibitor to inhibit the growth of target cancer cells was evaluated through the 72 hours time period of viability assay. Briefly, the candidate cell line ware plated in 96 well plate at the following density of cells respectively. 1×10^4 cells/well for MOLT-4, RPMI-8226, MV4-11 and MM.1S, 5×10^3 for H460, HCT116 and OVCAR-3 and IX 10^3 for A2780. After 24 hours, the cells were treated with various concentrations of the compound (ranging from 0.0015 uM to 10 uM). DMSO solvent without compound served as a control and final DMSO concentration less than 0.1%. After 72 hours of incubation at 37° C., 5% CO2 incubator, cells were analyzed for the viability using the CellTiter-Glo Luminescent Cell Viability Assay (Promega, Cat #G7570). All viability assays were performed in duplicate and Luminescence was read using an Envision (Perkin Elmer, USA). Data was analyzed using XLfit software.

CDK7/Cyclin H/MNAT1 = target: T4, CDK7/Cyclin H/MNAT1 (Homo sapiens, UniProt P50613); experiment: Enzymatic assay for CDK7 (FRET based LANCE Ultra kinase assay); assay type: biochemical; conditions: for IC50: read-out: CDK7 enzymatic activity (IC50 range)
T4 construct: purchased Invitrogen PR6749B
Procedure, shortened: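 LANCE Ultra TR-FRET kinase assay using a ULight-labeled peptide substrate and a Eu-labeled anti-phospho antibody, with ATP at its Km. Purified CDK/cyclin complex was added to compound after brief centrifugation.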

HCT116 = experiment: Cellular HCT116 viability assay (CellTiter-Glo, 72 hours); assay type: cell-based; conditions: Homo sapiens, HCT-116
Procedure, shortened: as §1

T4 sequence (P50613 whole entry): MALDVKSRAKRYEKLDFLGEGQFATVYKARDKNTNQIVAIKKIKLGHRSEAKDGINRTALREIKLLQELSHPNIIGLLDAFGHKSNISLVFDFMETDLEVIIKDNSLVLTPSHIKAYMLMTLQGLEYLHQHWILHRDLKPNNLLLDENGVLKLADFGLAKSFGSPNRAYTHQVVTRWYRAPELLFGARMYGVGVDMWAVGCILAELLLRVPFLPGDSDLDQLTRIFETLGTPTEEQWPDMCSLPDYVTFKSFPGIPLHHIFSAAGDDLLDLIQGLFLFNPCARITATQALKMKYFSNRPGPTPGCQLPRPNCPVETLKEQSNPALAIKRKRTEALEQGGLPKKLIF
T4 sequence (P51946 whole entry partner): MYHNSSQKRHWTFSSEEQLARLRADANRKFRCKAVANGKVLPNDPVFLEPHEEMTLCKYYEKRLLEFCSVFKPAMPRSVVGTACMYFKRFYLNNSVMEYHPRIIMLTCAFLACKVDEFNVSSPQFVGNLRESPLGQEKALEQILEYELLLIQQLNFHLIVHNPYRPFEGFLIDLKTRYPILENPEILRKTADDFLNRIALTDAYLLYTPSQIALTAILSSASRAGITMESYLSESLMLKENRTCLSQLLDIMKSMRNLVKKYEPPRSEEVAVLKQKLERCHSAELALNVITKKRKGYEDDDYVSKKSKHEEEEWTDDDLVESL
T4 sequence (P51948 whole entry partner): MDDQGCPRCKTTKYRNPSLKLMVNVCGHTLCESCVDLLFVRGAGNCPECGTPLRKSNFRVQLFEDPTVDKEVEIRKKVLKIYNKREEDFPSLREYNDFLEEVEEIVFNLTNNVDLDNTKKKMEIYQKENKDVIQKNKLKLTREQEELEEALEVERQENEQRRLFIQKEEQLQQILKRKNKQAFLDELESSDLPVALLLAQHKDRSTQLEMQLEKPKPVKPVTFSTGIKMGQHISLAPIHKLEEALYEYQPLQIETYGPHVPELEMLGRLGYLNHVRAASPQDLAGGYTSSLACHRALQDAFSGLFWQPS
T3 sequence (Q00535 whole entry): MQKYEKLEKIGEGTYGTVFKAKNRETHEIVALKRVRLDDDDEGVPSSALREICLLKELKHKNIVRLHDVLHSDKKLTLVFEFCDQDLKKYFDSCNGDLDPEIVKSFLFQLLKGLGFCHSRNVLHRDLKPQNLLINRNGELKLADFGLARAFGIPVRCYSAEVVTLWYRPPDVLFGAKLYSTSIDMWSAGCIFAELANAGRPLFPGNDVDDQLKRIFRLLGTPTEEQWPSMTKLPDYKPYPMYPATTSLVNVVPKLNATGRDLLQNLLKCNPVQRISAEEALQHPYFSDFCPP
T3 sequence (Q15078 99-307 partner limits assumed): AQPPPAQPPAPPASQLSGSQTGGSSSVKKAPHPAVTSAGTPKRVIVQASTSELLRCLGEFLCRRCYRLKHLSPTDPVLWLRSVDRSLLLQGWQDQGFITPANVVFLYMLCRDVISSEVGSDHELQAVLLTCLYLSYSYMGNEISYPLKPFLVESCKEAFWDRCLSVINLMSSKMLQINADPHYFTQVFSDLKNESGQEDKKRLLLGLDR
T2 sequence (P06493 whole entry): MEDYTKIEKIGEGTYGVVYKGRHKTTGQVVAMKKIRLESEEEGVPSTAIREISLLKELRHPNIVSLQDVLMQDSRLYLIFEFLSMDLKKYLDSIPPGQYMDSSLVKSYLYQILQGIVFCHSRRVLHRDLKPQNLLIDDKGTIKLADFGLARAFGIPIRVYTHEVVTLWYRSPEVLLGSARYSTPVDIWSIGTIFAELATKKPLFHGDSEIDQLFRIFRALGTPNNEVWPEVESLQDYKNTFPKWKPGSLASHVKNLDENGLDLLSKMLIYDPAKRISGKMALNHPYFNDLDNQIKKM
T2 sequence (P14635 whole entry partner): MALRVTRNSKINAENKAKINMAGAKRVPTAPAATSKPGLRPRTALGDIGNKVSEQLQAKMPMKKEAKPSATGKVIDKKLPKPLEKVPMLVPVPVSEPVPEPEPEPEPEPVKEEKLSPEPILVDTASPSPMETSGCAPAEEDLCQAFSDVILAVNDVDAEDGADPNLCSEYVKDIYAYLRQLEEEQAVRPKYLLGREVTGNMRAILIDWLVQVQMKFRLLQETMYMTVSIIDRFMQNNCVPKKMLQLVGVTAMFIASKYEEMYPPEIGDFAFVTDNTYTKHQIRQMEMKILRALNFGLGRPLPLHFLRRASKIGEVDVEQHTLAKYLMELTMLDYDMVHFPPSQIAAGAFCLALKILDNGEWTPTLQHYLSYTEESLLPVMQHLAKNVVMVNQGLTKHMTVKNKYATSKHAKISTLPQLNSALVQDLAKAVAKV

Row | Compound | IC50 (MOLT-4) | IC50 (CDK2/Cyclin A) | IC50 (H460) | IC50 (RPMI-8226) | IC50 (CDK1/Cyclin B) | IC50 (MV4-11) | IC50 (CDK5/p25) | IC50 (MM.1S) | CDK1/CDK7: Selectivity of CDK7 inhibition over CDK1 inhibition (CDK7/Cyclin H/MNAT1) | IC50 (CDK7/Cyclin H/MNAT1) | IC50 (HCT116) | CDK2/CDK7: Selectivity of CDK7 inhibition over CDK2 inhibition (CDK7/Cyclin H/MNAT1) | CDK5/CDK7: Selectivity of CDK7 inhibition over CDK5 inhibition (CDK7/Cyclin H/MNAT1)
1 | CC(C)c1cnn2c(NCc3ccccc3-n3cc4cc(Oc5ccccc5)ccc4n3)nc(N3CCC(N)CC3)nc12 [Compound 105] | 1000 to 10000 nM | > 1000 nM | 1000 to 10000 nM | 1000 to 10000 nM | > 1000 nM | – | > 1000 nM | ≤ 1000 nM | A (A=greater than 200 fold) | < 100 nM | – | B (B=less than 200 fold, but greater than 20 fold) | B (B=less than 200 fold, but greater than 20 fold)
2 | CC(C)c1cnn2c(NCc3ccccc3-c3cc4cccc(NC(=O)CCCN(C)C)c4[nH]3)nc(N3CCC(N)CC3)nc12 [Compound 143] | – | 100 to 1000 nM | 1000 to 10000 nM | 1000 to 10000 nM | 100 to 1000 nM | < 1000 nM | < 100 nM | ≤ 1000 nM | B (B=less than 200 fold, but greater than 20 fold) | < 100 nM | – | B (B=less than 200 fold, but greater than 20 fold) | C (C=less than 20 fold)
3 | CC(C)c1cnn2c(NCc3ccccc3-n3cccn3)nc(N3CCC(N4CCNCC4)CC3)nc12 [Compound 174] | > 10000 nM | > 1000 nM | < 1000 nM | – | > 1000 nM | < 1000 nM | 100 to 1000 nM | ≤ 1000 nM | A (A=greater than 200 fold) | < 100 nM | – | A (A=greater than 200 fold) | B (B=less than 200 fold, but greater than 20 fold)
4 | CC(C)c1cnn2c(NCc3ccccc3-c3cc4ccccc4[nH]3)nc(N3CCNC(=O)C3)nc12 [Compound 175] | – | > 1000 nM | 1000 to 10000 nM | 1000 to 10000 nM | > 1000 nM | 1000 to 10000 nM | > 1000 nM | 1000 to 10000 nM | A (A=greater than 200 fold) | < 100 nM | 1000 to 10000 nM | B (B=less than 200 fold, but greater than 20 fold) | B (B=less than 200 fold, but greater than 20 fold)
5 | CC(C)c1cnn2c(N[C@@H](C)c3ccccc3-n3cccn3)nc(N3CCC(N)CC3)nc12 [Compound 21] | – | > 1000 nM | < 1000 nM | 1000 to 10000 nM | > 1000 nM | < 1000 nM | > 1000 nM | ≤ 1000 nM | A (A=greater than 200 fold) | < 100 nM | < 1000 nM | A (A=greater than 200 fold) | A (A=greater than 200 fold)
6 | CC(C)c1cnn2c(NCc3ccccc3-n3ccc(CO)n3)nc(N3CCC(N)CC3)nc12 [Compound 181] | – | 100 to 1000 nM | < 1000 nM | – | 100 to 1000 nM | < 1000 nM | 100 to 1000 nM | ≤ 1000 nM | B (B=less than 200 fold, but greater than 20 fold) | < 100 nM | < 1000 nM | B (B=less than 200 fold, but greater than 20 fold) | B (B=less than 200 fold, but greater than 20 fold)

The next lines start with results.

Row | IC50 (MOLT-4) | IC50 (CDK2/Cyclin A) | IC50 (H460) | IC50 (RPMI-8226) | IC50 (CDK1/Cyclin B) | IC50 (MV4-11) | IC50 (CDK5/p25) | IC50 (MM.1S) | CDK1/CDK7: Selectivity of CDK7 inhibition over CDK1 inhibition (CDK7/Cyclin H/MNAT1) | IC50 (CDK7/Cyclin H/MNAT1) | IC50 (HCT116) | Compound | CDK2/CDK7: Selectivity of CDK7 inhibition over CDK2 inhibition (CDK7/Cyclin H/MNAT1) | CDK5/CDK7: Selectivity of CDK7 inhibition over CDK5 inhibition (CDK7/Cyclin H/MNAT1)
7 | 1000 to 10000 nM | > 1000 nM | 1000 to 10000 nM | 1000 to 10000 nM | > 1000 nM | 1000 to 10000 nM | > 1000 nM | 1000 to 10000 nM | A (A=greater than 200 fold) | < 100 nM | – | CC(C)c1cnn2c(NCc3c(-n4cccn4)cccc3C(F)(F)F)nc(N3CCC(N)CC3)nc12 [Compound 46] | A (A=greater than 200 fold) | A (A=greater than 200 fold)
8 | – | 100 to 1000 nM | < 1000 nM | < 1000 nM | 100 to 1000 nM | < 1000 nM | 100 to 1000 nM | ≤ 1000 nM | A (A=greater than 200 fold) | < 100 nM | < 1000 nM | CNC(=O)c1ccc2nn(-c3ccccc3CNc3nc(N4CCC(N)CC4)nc4c(C(C)C)cnn34)cc2c1 [Compound 14] | B (B=less than 200 fold, but greater than 20 fold) | B (B=less than 200 fold, but greater than 20 fold)
9 | – | 100 to 1000 nM | < 1000 nM | – | > 1000 nM | < 1000 nM | < 100 nM | ≤ 1000 nM | A (A=greater than 200 fold) | < 100 nM | < 1000 nM | CC(C)c1cnn2c(NCc3ccccc3-n3cc(C(=O)N4CCN(C)CC4)cn3)nc(N3CCC(N)CC3)nc12 [Compound 154] | A (A=greater than 200 fold) | B (B=less than 200 fold, but greater than 20 fold)
10 | – | 100 to 1000 nM | 1000 to 10000 nM | < 1000 nM | > 1000 nM | < 1000 nM | 100 to 1000 nM | 1000 to 10000 nM | A (A=greater than 200 fold) | < 100 nM | < 1000 nM | CC(C)c1cnn2c(NCc3ccccc3-n3cc4c(n3)CCNC4=O)nc(N3CCC(N)CC3)nc12 [Compound 134] | B (B=less than 200 fold, but greater than 20 fold) | B (B=less than 200 fold, but greater than 20 fold)
